Assay results reported in patent US6440440B1, “Biocidal benzylbiphenyl derivatives” (priority 1998, dated 2002).
Counter-ions that a name gives are not always drawn.

Experiments:
Assay type in all cases: cell-based
Escherichia coli = experiment: Primary bacteria screening; design: key: score: 3 = complete inhibition of growth, 2 = growth partially controlled; conditions: test compound concentration 500 μMol in tryptose broth agar, 27° C.
Experimental: (§1) The stock solutions with the test compounds were pipetted into multiwell plates and mixed with warm tryptose broth agar (2.6%) in order to reach a test compound concentration of 500 μMol. The medium was allowed to cool and subsequently inoculated with the bacteria. Wells were placed in an incubator at 27° C. and a relative humidity of 70%. After sufficient growth of the untreated cultures, the test was evaluated.
(§2) 3: complete inhibition of bacterial growth
(§3) 2: bacterial growth partially controlled

Pseudomonas aeruginosa = experiment: Primary bacteria screening; design: key: score: 3 = complete inhibition of growth, 2 = growth partially controlled; conditions: test compound concentration 500 μMol in tryptose broth agar, 27° C.
Experimental: as §1, §2, §3

Debaryomyces hansenii = experiment: Screening against yeasts; design: key: 3 = complete inhibition of growth, 2 = growth partially controlled; conditions: test compound concentration 500 μM
Experimental: as §1, §2, §3
(§4) A number of compounds of formula (I) were also tested in a screening against certain The test conditions are the same as described in biological example C.1. The concentration of the test compound was also 500 μmol, and the scoring system used was also the same.
Debaryomyces hansenii (19)

Rhodotorula rubra = experiment: Screening against yeasts; design: key: 3 = complete inhibition of growth, 2 = growth partially controlled; conditions: test compound concentration 500 μmol
Experimental: as §1, §2, §3, §4

Sporobolomyces roseus = experiment: Screening against yeasts; design: key: 3 = complete inhibition of growth, 2 = growth partially controlled; conditions: test compound concentration 500 μmol
Experimental: as §1, §2, §3, §4
Sporobolomyces roseus (21)

Structure (SMILES)	E. coli (growth inhibition score) (Escherichia coli)	P. aeruginosa (growth inhibition score) (Pseudomonas aeruginosa)	Test yeast (19) Debaryomyces hansenii (score) (Debaryomyces hansenii)	Test yeast (20) Rhodotorula rubra (score) (Rhodotorula rubra)	Test yeast (21) Sporobolomyces roseus (score) (Sporobolomyces roseus)
Cl.Cl.NCC1CCN(CCC(c2ccccc2)c2ccc(-c3ccccc3)cc2)CC1 (stereo not shown) [compound 30]	3	1	3	1	3
CCN1CCC(N2CCC(C(c3ccccc3)c3ccc(-c4ccccc4)cc3)CC2)CC1.Cl.Cl (stereo not shown) [compound 18]	1	2	3	1	3
NCCCN1CCC(N2CCC(C(c3ccccc3)c3ccc(-c4ccccc4)cc3)CC2)CC1 (stereo not shown) [compound 16]	3	3	3	3	3
c1ccc(-c2ccc(C(NC3CCN(C4CCNCC4)CC3)c3ccccc3)cc2)cc1 (stereo not shown) [compound 47]	3	1	3	3	3
c1ccc(-c2ccc(C(c3ccccc3)C3CCN(C4CCNCC4)CC3)cc2)cc1 (single isomer, unassigned) [compound 23]	1	3	3	3	3
Cl.Cl.Fc1ccc(-c2ccc(C(c3ccccc3)C3CCN(C4CCNCC4)CC3)cc2)cc1.O (racemic) [Co. No. 7, (±)-4-[[4′-fluoro(1,1′-biphenyl)-4-yl]phenylmethyl](1,4′-bipiperidine)dihydro-chloride.monohydrate]	3	3	3	2	3
CNCCCN(C)CCCN(C)C(c1ccccc1)c1ccc(-c2ccccc2)cc1 (racemic) [Co. No. 52, (±)-N-[[(1,1′-biphenyl)4-yl]phenylmethyl]-N,N′-dimethyl-N′-[3-(methylamino)propyl]-1,3-propanediamine trihydrochloride]	3	1	3	3	3
Cl.Cl.Oc1ccc(C(c2ccc(-c3ccccc3)cc2)C2CCN(C3CCNCC3)CC2)cc1 (stereo not shown) [compound 13]	3	3	3	1	3
Cl.Cl.NC1CCN(CCC(c2ccccc2)c2ccc(-c3ccccc3)cc2)CC1 (stereo not shown) [compound 31]	3	1	3	1	3
Cl.Cl.NCCC1CCN(CCC(c2ccccc2)c2ccc(-c3ccccc3)cc2)CC1 (stereo not shown) [compound 29]	3	1	3	3	3
CN(C)CCNCCC(c1ccccc1)c1ccc(-c2ccccc2)cc1 (stereo not shown) [compound 39]	3	1	3	1	3
NCC1CCN(CC=C(c2ccccc2)c2ccc(-c3ccccc3)cc2)CC1.O=C(O)C(=O)O.O=C(O)C(=O)O [compound 26]	3	1	3	2	3
CC(C)O.Cl.Cl.Fc1ccc(C(=C2CCN(C3CCNCC3)CC2)c2ccc(-c3ccccc3)cc2)cc1 [Co. No. 2, 4-[[(1,1′-biphenyl)-4-yl](4-fluorophenyl)methylen](1,4′-bipiperidine)dihydrochloride 2-propanolate (1:1)]	3	1			
Cl.Cl.Fc1ccc(-c2ccc(C(c3ccc(F)cc3)C3CCN(C4CCNCC4)CC3)cc2)cc1 (stereo not shown) [compound 6]	3	3	3	3	3
NCCC1CCN(CC=C(c2ccccc2)c2ccc(-c3ccccc3)cc2)CC1.O=C(O)C(=O)O.O=C(O)C(=O)O [compound 25]	3	1	3	1	3
Cl.Cl.Cl.c1ccc(-c2ccc(C(c3ccccc3)N3CCN(C4CCNCC4)CC3)cc2)cc1 (stereo not shown) [compound 46]	1	3	3	1	3

Structure (SMILES)	E. coli (growth inhibition score) (Escherichia coli)	P. aeruginosa (growth inhibition score) (Pseudomonas aeruginosa)	Test yeast (19) Debaryomyces hansenii (score) (Debaryomyces hansenii)	Test yeast (20) Rhodotorula rubra (score) (Rhodotorula rubra)	Test yeast (21) Sporobolomyces roseus (score) (Sporobolomyces roseus)
NC1CCN(CC=C(c2ccccc2)c2ccc(-c3ccccc3)cc2)CC1.O=C(O)C(=O)O.O=C(O)C(=O)O [compound 27]	3	1	3	1	3
Cl.c1ccc(-c2ccc(C(c3ccccc3)N3CCC(N4CCCCC4)CC3)cc2)cc1 (stereo not shown) [compound 45]	1	1			
CN(C)CCCN1CCC(C(c2ccccc2)c2ccc(-c3ccccc3)cc2)CC1.Cl.Cl (stereo not shown) [compound 43]	1	2	3	2	3
Cl.Cl.NCCCN1CCC(C(c2ccccc2)c2ccc(-c3ccccc3)cc2)CC1.O.O.O.O (stereo not shown) [Co. No. 78, (A)-4-[([1,1′-biphenyl]-4-yl)phenylmethyl]-1-piperidinepropanamine dihydrochloride tetrahydrate]	3	3			
Cl.Cl.c1ccc(-c2ccc(C(c3ccccc3)C3CCN(C4CCNCC4)CC3)cc2)cc1 (single isomer, unassigned) [compound 22]	3	1	3	1	3
CN(C1CCNCC1)C1CCN(CCC(c2ccccc2)c2ccc(-c3ccccc3)cc2)CC1.Cl.Cl.Cl.O.O.O (stereo not shown) [compound 89]	3	1			
Br.Br.CN(CCC(c1ccccc1)c1ccc(-c2ccccc2)cc1)C1CCNCC1 (stereo not shown) [compound 51]	3	1	3	3	3
CN(C)CC1CCN(CCC(c2ccccc2)c2ccc(-c3ccccc3)cc2)CC1 (stereo not shown) [compound 33]	1	1	3	3	3
O=S(=O)(O)c1ccc(-c2ccc(C(c3ccc(S(=O)(=O)O)cc3)C3CCN(C4CCNCC4)CC3)cc2)cc1 (stereo not shown) [compound 10]	1	1			
Fc1ccc(C(=C2CCN(C3CCNCC3)CC2)c2ccc(-c3ccc(F)cc3)cc2)cc1.O=C(O)/C=C/C(=O)O.O=C(O)/C=C/C(=O)O [compound 1]	3	1			
CN(C)CCNCC=C(c1ccccc1)c1ccc(-c2ccccc2)cc1 [compound 37]	1	1			
Cl.Fc1ccc(-c2ccc(C(=C3CCN(C4CCNCC4)CC3)c3ccccc3)cc2)cc1 [compound 5]	2	1			
CN(C)CCCN(C)CCC(c1ccccc1)c1ccc(-c2ccccc2)cc1 (racemic) [Co. No. 38, (±)-N-[3-[(1,1′-biphenyl)-4-yl]-3-phenylpropyl]-N,N′,N′-trimethylpropanediamine]	1	1			
CN(C)CCC1CCN(CCC(c2ccccc2)c2ccc(-c3ccccc3)cc2)CC1.Cl.Cl (stereo not shown) [compound 28]	1	1			
CN(C)C1CCN(CCC(c2ccccc2)c2ccc(-c3ccccc3)cc2)CC1 (stereo not shown) [compound 32]	1	1			
CN(CCN)CCC(c1ccccc1)c1ccc(-c2ccccc2)cc1.O=c1[nH]sc2ccccc12 (stereo not shown) [compound 73]	3	3			
